According to ChEMBL document CHEMBL3045472, “Synthesis and evaluation of some novel methylene-bridged aryl semicarbazones as potential anticonvulsant agents” (Med Chem Res, 2012):

How the values were obtained:
[1] = test system: Mus musculus; assay: Anticonvulsant activity in Mus musculus albino (mouse) assessed as protection against pentylenetetrazole-induced seizure at 300 mg/kg, ip administered 30 min followed by pentylenetetrazole induction measured for 30 min relative to control; format: functional; details: route intraperitoneal
[2] = test system: Mus musculus; assay: Anticonvulsant activity in Mus musculus albino (mouse) assessed as protection against pentylenetetrazole-induced seizure at 100 mg/kg, ip administered 30 min followed by pentylenetetrazole induction measured for 30 min relative to control; format: functional; details: route intraperitoneal
[3] = test system: Mus musculus; assay: Anticonvulsant activity in Mus musculus albino (mouse) assessed as decrease in pentylenetetrazole-induced total seizure time at 300 mg/kg, ip administered 30 min followed by pentylenetetrazole induction measured for 30 min (reference value: 9.9 +/- 1.3 secs); format: functional; details: route intraperitoneal
[4] = test system: Mus musculus; assay: Anticonvulsant activity in Mus musculus albino (mouse) assessed as decrease in pentylenetetrazole-induced total seizure time at 100 mg/kg, ip administered 30 min followed by pentylenetetrazole induction measured for 30 min (reference value: 9.9 +/- 1.3 secs); format: functional; details: route intraperitoneal
[5] = test system: Mus musculus; assay: Anticonvulsant activity in Mus musculus albino (mouse) assessed as increase in onset of pentylenetetrazole-induced seizure at 300 mg/kg, ip administered 30 min followed by pentylenetetrazole induction measured for 30 min (reference value: 184 +/- 32 secs); format: functional; details: route intraperitoneal
[6] = test system: Mus musculus; assay: Anticonvulsant activity in Mus musculus albino (mouse) assessed as increase in onset of pentylenetetrazole-induced seizure at 100 mg/kg, ip administered 30 min followed by pentylenetetrazole induction measured for 30 min (reference value: 184 +/- 32 secs); format: functional; details: route intraperitoneal
[7] = test system: Mus musculus; assay: Anticonvulsant activity in pentylenetetrazole-induced Mus musculus albino (mouse) seizure model assessed as death time at 300 mg/kg, ip administered 30 min followed by pentylenetetrazole induction measured for 30 min (reference value: 416 +/- 58.2 secs); format: functional; details: route intraperitoneal
[8] = test system: Mus musculus; assay: Anticonvulsant activity in pentylenetetrazole-induced Mus musculus albino (mouse) seizure model assessed as death time at 100 mg/kg, ip administered 30 min followed by pentylenetetrazole induction measured for 30 min (reference value: 416 +/- 58.2 secs); format: functional; details: route intraperitoneal
[9] = test system: Mus musculus; assay: Anticonvulsant activity in pentylenetetrazole-induced Mus musculus albino (mouse) seizure model assessed as survival at 300 mg/kg, ip administered 30 min followed by pentylenetetrazole induction measured for 30 min relative to control; format: functional; details: 0.5 h, route intraperitoneal
[10] = test system: Mus musculus; assay: Anticonvulsant activity in pentylenetetrazole-induced Mus musculus albino (mouse) seizure model assessed as survival at 100 mg/kg, ip administered 30 min followed by pentylenetetrazole induction measured for 30 min relative to control; format: functional; details: 0.5 h, route intraperitoneal
[11] = test system: Mus musculus; assay: Anticonvulsant activity in Mus musculus albino (mouse) assessed as decrease in pentylenetetrazole-induced total seizure time at 50 mg/kg, ip administered 30 min followed by pentylenetetrazole induction measured for 30 min (reference value: 9.9 +/- 1.3 secs); format: functional; details: route intraperitoneal
[12] = test system: Mus musculus; assay: Anticonvulsant activity in Mus musculus albino (mouse) assessed as increase in onset of pentylenetetrazole-induced seizure at 50 mg/kg, ip administered 30 min followed by pentylenetetrazole induction measured for 30 min (reference value: 184 +/- 32 secs); format: functional; details: route intraperitoneal
[13] = test system: Mus musculus; assay: Neurotoxicity in Mus musculus albino (mouse) assessed as minimal motor impairment at 300 mg/kg, ip measured for 180 secs by rotorod test; format: toxicity, organism-based; design: dose 300 mg/kg, route intraperitoneal; details: in vivo, 0.05 h
[14] = test system: Mus musculus; assay: Anticonvulsant activity in pentylenetetrazole-induced Mus musculus albino (mouse) seizure model assessed as death time at 50 mg/kg, ip administered 30 min followed by pentylenetetrazole induction measured for 30 min (reference value: 416 +/- 58.2 secs); format: functional; details: route intraperitoneal
[15] = test system: Mus musculus; assay: Anticonvulsant activity in pentylenetetrazole-induced Mus musculus albino (mouse) seizure model assessed as survival at 50 mg/kg, ip administered 30 min followed by pentylenetetrazole induction measured for 30 min relative to control; format: functional; details: 0.5 h, route intraperitoneal
[16] = test system: Mus musculus; assay: Anticonvulsant activity in Mus musculus albino (mouse) assessed as protection against pentylenetetrazole-induced seizure at 50 mg/kg, ip administered 30 min followed by pentylenetetrazole induction measured for 30 min relative to control; format: functional; details: route intraperitoneal
[17] = test system: Mus musculus; assay: Anticonvulsant activity in Mus musculus albino (mouse) assessed as decrease in pentylenetetrazole-induced total seizure time at 15 mg/kg, ip administered 30 min followed by pentylenetetrazole induction measured for 30 min (reference value: 9.9 +/- 1.3 secs); format: functional; details: route intraperitoneal
[18] = test system: Mus musculus; assay: Anticonvulsant activity in Mus musculus albino (mouse) assessed as increase in onset of pentylenetetrazole-induced seizure at 15 mg/kg, ip administered 30 min followed by pentylenetetrazole induction measured for 30 min (reference value: 184 +/- 32 secs); format: functional; details: route intraperitoneal
[19] = test system: Mus musculus; assay: Neurotoxicity in Mus musculus albino (mouse) assessed as minimal motor impairment at 15 mg/kg, ip measured for 180 secs by rotorod test; format: toxicity, organism-based; design: dose 15 mg/kg, route intraperitoneal; details: in vivo, 0.05 h
[20] = test system: Mus musculus; assay: Anticonvulsant activity in pentylenetetrazole-induced Mus musculus albino (mouse) seizure model assessed as death time at 15 mg/kg, ip administered 30 min followed by pentylenetetrazole induction measured for 30 min (reference value: 416 +/- 58.2 secs); format: functional; details: route intraperitoneal
[21] = test system: Mus musculus; assay: Anticonvulsant activity in pentylenetetrazole-induced Mus musculus albino (mouse) seizure model assessed as survival at 15 mg/kg, ip administered 30 min followed by pentylenetetrazole induction measured for 30 min relative to control; format: functional; details: 0.5 h, route intraperitoneal
[22] = test system: Mus musculus; assay: Anticonvulsant activity in Mus musculus albino (mouse) assessed as protection against pentylenetetrazole-induced seizure at 15 mg/kg, ip administered 30 min followed by pentylenetetrazole induction measured for 30 min relative to control; format: functional; details: route intraperitoneal
[23] = test system: Mus musculus; assay: Anticonvulsant activity in Mus musculus albino (mouse) assessed as decrease in pentylenetetrazole-induced total seizure time at 220 mg/kg, ip administered 30 min followed by pentylenetetrazole induction measured for 30 min (reference value: 9.9 +/- 1.3 secs); format: functional; details: route intraperitoneal
[24] = test system: Mus musculus; assay: Anticonvulsant activity in Mus musculus albino (mouse) assessed as increase in onset of pentylenetetrazole-induced seizure at 220 mg/kg, ip administered 30 min followed by pentylenetetrazole induction measured for 30 min (reference value: 184 +/- 32 secs); format: functional; details: route intraperitoneal
[25] = test system: Mus musculus; assay: Neurotoxicity in Mus musculus albino (mouse) assessed as minimal motor impairment at 220 mg/kg, ip measured for 180 secs by rotorod test; format: toxicity, organism-based; design: dose 220 mg/kg, route intraperitoneal; details: in vivo, 0.05 h
[26] = test system: Mus musculus; assay: Anticonvulsant activity in pentylenetetrazole-induced Mus musculus albino (mouse) seizure model assessed as death time at 220 mg/kg, ip administered 30 min followed by pentylenetetrazole induction measured for 30 min (reference value: 416 +/- 58.2 secs); format: functional; details: route intraperitoneal
[27] = test system: Mus musculus; assay: Anticonvulsant activity in pentylenetetrazole-induced Mus musculus albino (mouse) seizure model assessed as survival at 220 mg/kg, ip administered 30 min followed by pentylenetetrazole induction measured for 30 min relative to control; format: functional; details: 0.5 h, route intraperitoneal
[28] = test system: Mus musculus; assay: Anticonvulsant activity in Mus musculus albino (mouse) assessed as protection against pentylenetetrazole-induced seizure at 220 mg/kg, ip administered 30 min followed by pentylenetetrazole induction measured for 30 min relative to control; format: functional; details: route intraperitoneal

Row | SMILES | Activity [1] [%] | Activity [2] [%] | Time [3] [s] | Time [4] [s] | Time [5] [s] | Time [6] [s] | Time [7] [s] | Time [8] [s] | survival at 300 mg/kg [9] [%] | survival at 100 mg/kg [10] [%] | other results
1 | CCOc1ccc(NCC(=O)N/N=C/c2ccccc2Cl)cc1 | 0 | 14 | 9.3 | 8.5 | 590 | 436 | 651 | 1189 | 12 | 43 | –
2 | CCOc1ccc(NCC(=O)N/N=C/c2ccccc2[N+](=O)[O-])cc1 | 14 | 0 | 6.8 | 8.7 | 626 | 275 | 734 | 1011 | 14 | 12 | –
3 | CCOc1ccc(NCC(=O)N/N=C/c2ccc([N+](=O)[O-])cc2)cc1 | 22 | 16 | 5.2 | 5.3 | 885 | 603 | 1286 | 1137 | 44 | 50 | Time [11]: 7.3 s; Time [12]: 643 s; Activity [13]: Toxic; Time [14]: 1528 s; survival at 50 mg/kg [15]: 67%; Activity [16]: 16%
4 | CCOc1ccc(NCC(=O)N/N=C/c2ccccc2O)cc1 | 0 | 0 | 6.4 | 11 | 616 | 275 | 896 | 659 | 0 | 12 | Time [11]: 5.2 s; Time [12]: 903 s; Time [14]: 1055 s; survival at 50 mg/kg [15]: 33%; Activity [16]: 22%
5 | CCOc1ccc(NCC(=O)NN=C(C)C)cc1 | 0 | 0 | 4.2 | 4.9 | 425 | 373 | 606 | 623 | 0 | 0 | –
6 | CCOc1ccc(NCC(=O)N/N=C(/C)c2ccccc2)cc1 | 0 | 0 | 5.8 | 5.9 | 414 | 243 | 483 | 310 | 0 | 0 | –
7 | O=C(CNc1ccc(Br)cc1)N/N=C/c1ccccc1[N+](=O)[O-] | 33 | 0 | 2.8 | 11 | 1073 | 144 | 1265 | 897 | 33 | 38 | –
8 | O=C(CNc1ccc(Br)cc1)N/N=C/c1ccc([N+](=O)[O-])cc1 | 38 | 0 | 3.8 | 6.1 | 809 | 640 | 1456 | 1400 | 62 | 62 | Time [11]: 3.7 s; Time [12]: 596 s; Time [14]: 1122 s; survival at 50 mg/kg [15]: 50%; Activity [16]: 16%
9 | O=C(CNc1ccc(Br)cc1)N/N=C/c1ccccc1O | 38 | 25 | 6.6 | 7.7 | 884 | 724 | 1800 | 1800 | 100 | 100 | Time [11]: 8.6 s; Time [12]: 562 s; Time [14]: 832 s; survival at 50 mg/kg [15]: 25%; Activity [16]: 25%
10 | O=C(CNc1ccc(Br)cc1)N/N=C/c1ccccc1Cl | 14 | 0 | 4.5 | 6.4 | 514 | 403 | 781 | 885 | 29 | 25 | –
11 | CC(C)=NNC(=O)CNc1ccc(Br)cc1 | 45 | 0 | 3.3 | 10 | 1098 | 224 | 1428 | 945 | 64 | 25 | –
12 | C/C(=N\NC(=O)CNc1ccc(Br)cc1)c1ccccc1 | 38 | 14 | 3.1 | 11 | 915 | 498 | 1161 | 1577 | 50 | 86 | –
13 | CCC1(c2ccccc2)C(=O)NC(=O)NC1=O [PHENOBARBITAL] | – | – | – | – | – | – | – | – | – | – | Time [17]: 2.2 s; Time [18]: 1088 s; Activity [19]: Non-toxic; Time [20]: 1800 s; survival at 15 mg/kg [21]: 100%; Activity [22]: 50%
14 | CCCC(CCC)C(=O)[O-].[Na+] [VALPROATE SODIUM] | – | – | – | – | – | – | – | – | – | – | Time [23]: 2.3 s; Time [24]: 1207 s; Activity [25]: Non-toxic; Time [26]: 1800 s; survival at 220 mg/kg [27]: 100%; Activity [28]: 50%
